# Biological target: FXR (Homo sapiens (Human), UniProt Q96RI1)
# Assay: FXR EC50 (FXR agonist activity reported with each example)
# Assay type: cell-based
# Sequence of FXR (Q96RI1 262-486): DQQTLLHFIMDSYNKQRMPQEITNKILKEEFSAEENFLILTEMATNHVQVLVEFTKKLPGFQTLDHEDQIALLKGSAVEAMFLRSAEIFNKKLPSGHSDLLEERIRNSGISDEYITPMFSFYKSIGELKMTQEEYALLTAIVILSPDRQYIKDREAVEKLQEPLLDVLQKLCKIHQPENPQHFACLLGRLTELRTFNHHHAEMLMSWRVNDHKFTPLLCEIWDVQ
row,SMILES,EC50 [nM]
1,"O=C(O)c1cc(OCC23CCC(/C=C/c4c(-c5c(Cl)cncc5Cl)noc4C4CC4)(CC2)CO3)cc(OC(F)F)c1 [Example 499, (E)-3-((4-(2-(5-cyclopropyl-3-(3,5-dichloropyridin-4-yl)isoxazol-4-yl)vinyl)-2-oxabicyclo[2.2.2]octan-1-yl)methoxy)-5-(difluoromethoxy)benzoic acid]",160
2,"O=C(O)c1cc(C(F)(F)F)c2cc(OCC34CCC(/C=C/c5c(-c6c(Cl)cncc6Cl)noc5C5CC5)(CC3)CO4)ccc2n1 [Example 500, (E)-6-((4-(2-(5-cyclopropyl-3-(3,5-dichloropyridin-4-yl)isoxazol-4-yl)vinyl)-2-oxabicyclo[2.2.2]octan-1-yl)methoxy)-4-(trifluoromethyl)quinoline-2-carboxylic acid]",160
3,"CC(C)Oc1cc(C(=O)O)nc2ccc(OCC34CCC(/C=C/c5c(-c6c(Cl)cncc6Cl)noc5C5CC5)(CC3)CO4)cc12 [Example 501, (E)-6-((4-(2-(5-cyclopropyl-3-(3,5-dichloropyridin-4-yl)isoxazol-4-yl)vinyl)-2-oxabicyclo[2.2.2]octan-1-yl)methoxy)-4-isopropoxyquinoline-2-carboxylic acid]",54
4,"O=C(O)c1cccc2nc(C34CCC(/C=C\c5c(-c6c(Cl)cccc6Cl)noc5C5CC5)(CC3)CC4)sc12 [Example 502, (Z)-2-(4-(2-(5-cyclopropyl-3-(2,6-dichlorophenyl)isoxazol-4-yl)vinyl)bicyclo[2.2.2]octan-1-yl)benzo[d]thiazole-7-carboxylic acid]",1500
5,"O=C(O)c1cccc2nc(C34CCC(/C=C/c5c(-c6c(Cl)cncc6Cl)noc5C5CC5)(CC3)CC4)sc12 [Example 503, (E)-2-(4-(2-(5-cyclopropyl-3-(3,5-dichloropyridin-4-yl)isoxazol-4-yl)vinyl)bicyclo[2.2.2]octan-1-yl)benzo[d]thiazole-7-carboxylic acid]",31
6,"O=C(O)c1cccc(-c2noc(C34CCC(/C=C/c5c(-c6c(Cl)cncc6Cl)noc5C5CC5)(CC3)CC4)n2)c1 [Example 504, (E)-3-(5-(4-(2-(5-cyclopropyl-3-(3,5-dichloropyridin-4-yl)isoxazol-4-yl)vinyl)bicyclo[2.2.2]octan-1-yl)-1,2,4-oxadiazol-3-yl)benzoic acid]",33
7,"O=C(O)c1ccc2nc(C34CCC(/C=C/c5c(-c6c(Cl)cncc6Cl)noc5C5CC5)(CC3)CC4)sc2c1 [Example 505, (E)-2-(4-(2-(5-cyclopropyl-3-(3,5-dichloropyridin-4-yl)isoxazol-4-yl)vinyl)bicyclo[2.2.2]octan-1-yl)benzo[d]thiazole-6-carboxylic acid]",88
8,"O=C(O)c1cc(OCC23CCC(/C=C/c4c(-c5c(Cl)cncc5Cl)noc4C4CC4)(CC2)CC3)cc(C(F)(F)F)c1 [Example 506, (E)-3-((4-(2-(5-cyclopropyl-3-(3,5-dichloropyridin-4-yl)isoxazol-4-yl)vinyl)bicyclo[2.2.2]octan-1-yl)methoxy)-5-(trifluoromethyl)benzoic acid]",6
9,"O=C(O)c1cc(C(F)(F)F)cc2nc(C34CCC(/C=C/c5c(-c6c(Cl)cncc6Cl)noc5C5CC5)(CC3)CC4)sc12 [Example 507, (E)-2-(4-(2-(5-cyclopropyl-3-(3,5-dichloropyridin-4-yl)isoxazol-4-yl)vinyl)bicyclo[2.2.2]octan-1-yl)-5-(trifluoromethyl)benzo[d]thiazole-7-carboxylic acid]",20
10,"COc1cc(C(=O)O)nc2ccc(OCC34CCC(/C=C/c5c(-c6c(Cl)cncc6Cl)noc5C5CC5)(CC3)CC4)cc12 [Example 508, (E)-6-((4-(2-(5-cyclopropyl-3-(3,5-dichloropyridin-4-yl)isoxazol-4-yl)vinyl)bicyclo[2.2.2]octan-1-yl)methoxy)-4-methoxyquinoline-2-carboxylic acid]",100
11,"Cc1nc(C23CCC(/C=C/c4c(-c5c(Cl)cncc5Cl)noc4C4CC4)(CC2)CC3)sc1C(=O)O [Example 509, (E)-2-(4-(2-(5-cyclopropyl-3-(3,5-dichloropyridin-4-yl)isoxazol-4-yl)vinyl)bicyclo[2.2.2]octan-1-yl)-4-methylthiazole-5-carboxylic acid]",40
12,"O=C(O)c1csc(C23CCC(/C=C/c4c(-c5c(Cl)cncc5Cl)noc4C4CC4)(CC2)CC3)n1 [Example 510, (E)-2-(4-(2-(5-cyclopropyl-3-(3,5-dichloropyridin-4-yl)isoxazol-4-yl)vinyl)bicyclo[2.2.2]octan-1-yl)thiazole-4-carboxylic acid]",410
13,"O=C(O)c1cccc(C23CCC(COCc4c(-c5c(Cl)cncc5Cl)noc4C4CC4)(CC2)CO3)c1 [Example 511, 3-(4-(((5-cyclopropyl-3-(3,5-dichloropyridin-4-yl)isoxazol-4-yl)methoxy)methyl)-2-oxabicyclo[2.2.2]octan-1-yl)benzoic acid]",2900
14,"O=C(O)c1c(F)ccc2nc(C34CCC(OCc5c(-c6c(Cl)cncc6Cl)noc5C5CC5)(CC3)CC4)sc12 [Example 512, 2-(4-((5-cyclopropyl-3-(3,5-dichloropyridin-4-yl)isoxazol-4-yl)methoxy)bicyclo[2.2.2]octan-1-yl)-6-fluorobenzo[d]thiazole-7-carboxylic acid]",43
15,"O=C(O)c1cccc(-c2noc(C34C5C6C3C3C4C5C63COCc3c(-c4c(Cl)cccc4Cl)noc3C3CC3)n2)c1 (stereo not shown) [Example 513, 3-(5-(4-(((5-cyclopropyl-3-(2,6-dichlorophenyl)isoxazol-4-yl)methoxy)methyl)cuban-1-yl)-1,2,4-oxadiazol-3-yl)benzoic acid]",960
16,"O=C(O)c1cccc(-c2noc(C34CC(COCc5c(-c6c(Cl)cccc6Cl)noc5C5CC5)(C3)C4)n2)c1 [Example 514, 3-(5-(3-(((5-cyclopropyl-3-(2,6-dichlorophenyl)isoxazol-4-yl)methoxy)methyl)bicyclo[1.1.1]pentan-1-yl)-1,2,4-oxadiazol-3-yl)benzoic acid]",1700
17,"O=C(O)c1ccc2cc(CCC34CCC(OCc5c(-c6c(Cl)cncc6Cl)noc5C5CC5)(CC3)CC4)ccc2n1 [Example 515, 6-(2-(4-((5-cyclopropyl-3-(3,5-dichloropyridin-4-yl)isoxazol-4-yl)methoxy)bicyclo[2.2.2]octan-1-yl)ethyl)quinoline-2-carboxylicacid]",87
18,"O=C(O)Cc1ccc(/C=C/C23CCC(OCc4c(-c5c(Cl)cncc5Cl)noc4C4CC4)(CC2)CC3)cc1 [Example 516, (E)-2-(4-(2-(4-((5-cyclopropyl-3-(3,5-dichloropyridin-4-yl)isoxazol-4-yl)methoxy)bicyclo[2.2.2]octan-1-yl)vinyl)phenyl)acetic acid]",173
19,"COc1nc(C(=O)O)cc2ccc(/C=C/C34CCC(OCc5c(-c6c(Cl)cncc6Cl)noc5C5CC5)(CC3)CC4)cc12 [Example 517, (E)-7-(2-(4-((5-cyclopropyl-3-(3,5-dichloropyridin-4-yl)isoxazol-4-yl)methoxy)bicyclo[2.2.2]octan-1-yl)vinyl)-1-methoxyisoquinoline-3-carboxylic acid]",42
20,"CC(C)Oc1nc(C(=O)O)cc2ccc(/C=C/C34CCC(OCc5c(-c6c(Cl)cncc6Cl)noc5C5CC5)(CC3)CC4)cc12 [Example 518, (E)-7-(2-(4-((5-cyclopropyl-3-(3,5-dichloropyridin-4-yl)isoxazol-4-yl)methoxy)bicyclo[2.2.2]octan-1-yl)vinyl)-1-isopropoxyisoquinoline-3-carboxylic acid]",62
21,"O=C(O)c1cc(F)cn2c(C#CC34CCC(OCc5c(-c6c(Cl)cncc6Cl)noc5C5CC5)(CC3)CC4)cnc12 [Example 520, 3-((4-((5-cyclopropyl-3-(3,5-dichloropyridin-4-yl)isoxazol-4-yl)methoxy)bicyclo[2.2.2]octan-1-yl)ethynyl)-6-fluoroimidazo[1,2-a]pyridine-8-carboxylic acid]",4
22,"COc1nc(C(=O)O)cc2ccc(C#CC34CCC(OCc5c(-c6c(Cl)cncc6Cl)noc5C5CC5)(CC3)CC4)cc12 [Example 521, 7-((4-((5-cyclopropyl-3-(3,5-dichloropyridin-4-yl)isoxazol-4-yl)methoxy)bicyclo[2.2.2]octan-1-yl)ethynyl)-1-methoxyisoquinoline-3-carboxylic acid]",40
23,"COc1cc(C(=O)N(C)C)nc2ccc(C#CC34CCC(OCc5c(-c6c(Cl)cncc6Cl)noc5C5CC5)(CC3)CC4)cc12 [Example 522, 6-((4-((5-cyclopropyl-3-(3,5-dichloropyridin-4-yl)isoxazol-4-yl)methoxy)bicyclo[2.2.2]octan-1-yl)ethynyl)-4-methoxy-N,N-dimethylquinoline-2-carboxamide]",52
24,"O=C(O)c1cnc(N2CC(F)C2)c(C#CC23CCC(OCc4c(-c5c(Cl)cncc5Cl)noc4C4CC4)(CC2)CC3)c1 [Example 523, 5-((4-((5-cyclopropyl-3-(3,5-dichloropyridin-4-yl)isoxazol-4-yl)methoxy)bicyclo[2.2.2]octan-1-yl)ethynyl)-6-(3-fluoroazetidin-1-yl)nicotinic acid]",24
25,"N#CC12CCC(OCc3c(-c4c(Cl)cccc4Cl)noc3C3CC3)(CC1)CC2 [Intermediate 70A, 4-((5-Cyclopropyl-3-(2,6-dichlorophenyl)isoxazol-4-yl)methoxy)bicyclo[2.2.2]octane-1-carbonitrile]",470
26,"COC(=O)c1cccc(-c2noc(C34CCC(C=Cc5c(-c6c(Cl)cccc6Cl)noc5C5CC5)(CC3)CC4)n2)c1 [Intermediate 159F, methyl 3-(5-(4-(2-(5-cyclopropyl-3-(2,6-dichlorophenyl)isoxazol-4-yl)vinyl)bicyclo[2.2.2]octan-1-yl)-1,2,4-oxadiazol-3-yl)benzoate]",4600
27,"NC(=O)C12CCC(COCc3c(-c4c(Cl)cccc4Cl)noc3C3CC3)(CC1)CC2 [Intermediate 162C, 4-(((5-cyclopropyl-3-(2,6-dichlorophenyl)isoxazol-4-yl)methoxy)methyl)bicyclo[2.2.2]octane-1-carboxamide]",180
28,"COC(=O)c1ccc(NC(=S)C23CCC(COCc4c(-c5c(Cl)cccc5Cl)noc4C4CC4)(CC2)CC3)c(Cl)c1 [Intermediate 168A, methyl 3-chloro-4-(4-(((5-cyclopropyl-3-(2,6-dichlorophenyl)isoxazol-4-yl)methoxy)methyl)bicyclo[2.2.2]octane-1-carbothioamido)benzoate]",4380

# Source: US10730863B2, “Bridged bicyclic compounds as farnesoid X receptor modulators” (BRISTOL-MYERS SQUIBB COMPANY, priority 2017, dated 2020)
